Data published in ChEMBL document CHEMBL4017512 (J Med Chem, 2017).
pIC50: −log10 of the molar value.

Experiments:
HCT-116 = experiment: Antiproliferative activity against human HCT116 cells after 72 hrs by phosphatase assay; format: functional, cell-based; details: HCT-116, 72 h
[1] = Cytotoxicity against human HCT116/VM46 cells assessed as reduction in cell viability after 72 hrs by phosphatase assay; format: cell-based; details: HCT-116/VM46, 72 h
L1210 = experiment: Antiproliferative activity against mouse L1210 cells after 72 hrs by phosphatase assay; format: functional, cell-based; details: L1210, 72 h

Compound | pIC50 (HCT-116) | pIC50 (L1210) | pIC50 [1]
CC[C@]1(NC(=O)C(C)C)C[C@H]2CN(CCc3c([nH]c4ccccc34)[C@@](C(=O)OC)(c3cc4c(cc3OC)N(C)[C@H]3[C@@](O)(C(=O)OC)[C@H](OC(C)=O)[C@]5(CC)C=CCN6CC[C@]43[C@@H]65)C2)C1 | 7.05 | 7.15 | 5.85
CCOc1ccc(C(=O)N[C@@]2(CC)C[C@H]3CN(CCc4c([nH]c5ccccc45)[C@@](C(=O)OC)(c4cc5c(cc4OC)N(C)[C@H]4[C@@](O)(C(=O)OC)[C@H](OC(C)=O)[C@]6(CC)C=CCN7CC[C@]54[C@@H]76)C3)C2)cc1OCC | 9.30 | 9.40 | 8.22
CC[C@]1(NC(=O)c2ccc(NC(=O)OC(C)(C)C)c(C)c2)C[C@H]2CN(CCc3c([nH]c4ccccc34)[C@@](C(=O)OC)(c3cc4c(cc3OC)N(C)[C@H]3[C@@](O)(C(=O)OC)[C@H](OC(C)=O)[C@]5(CC)C=CCN6CC[C@]43[C@@H]65)C2)C1 | 8.24 | 8.25 | 7.52
CC[C@]1(NC(=O)c2ccc(OC(F)(F)F)c(OC)c2)C[C@H]2CN(CCc3c([nH]c4ccccc34)[C@@](C(=O)OC)(c3cc4c(cc3OC)N(C)[C@H]3[C@@](O)(C(=O)OC)[C@H](OC(C)=O)[C@]5(CC)C=CCN6CC[C@]43[C@@H]65)C2)C1 | 8.77 | 8.89 | 8.16
CC[C@]1(NC(=O)/C=C/c2ccccn2)C[C@H]2CN(CCc3c([nH]c4ccccc34)[C@@](C(=O)OC)(c3cc4c(cc3OC)N(C)[C@H]3[C@@](O)(C(=O)OC)[C@H](OC(C)=O)[C@]5(CC)C=CCN6CC[C@]43[C@@H]65)C2)C1 | 9.15 | 9.15 | 7.60
CC[C@]1(NC(=O)c2ccc(OC)cc2)C[C@H]2CN(CCc3c([nH]c4ccccc34)[C@@](C(=O)OC)(c3cc4c(cc3OC)N(C)[C@H]3[C@@](O)(C(=O)OC)[C@H](OC(C)=O)[C@]5(CC)C=CCN6CC[C@]43[C@@H]65)C2)C1 | 9.52 | 9.60 | 8.12
CC[C@]1(NC(=O)c2cc3ccccc3o2)C[C@H]2CN(CCc3c([nH]c4ccccc34)[C@@](C(=O)OC)(c3cc4c(cc3OC)N(C)[C@H]3[C@@](O)(C(=O)OC)[C@H](OC(C)=O)[C@]5(CC)C=CCN6CC[C@]43[C@@H]65)C2)C1 | 8.96 | 8.74 | 7.82
CC[C@]1(NC(=O)c2cncn2C)C[C@H]2CN(CCc3c([nH]c4ccccc34)[C@@](C(=O)OC)(c3cc4c(cc3OC)N(C)[C@H]3[C@@](O)(C(=O)OC)[C@H](OC(C)=O)[C@]5(CC)C=CCN6CC[C@]43[C@@H]65)C2)C1 | 8.66 | 8.40 | 7.10
CC[C@]1(NC(=O)/C=C/c2ccccc2)C[C@H]2CN(CCc3c([nH]c4ccccc34)[C@@](C(=O)OC)(c3cc4c(cc3OC)N(C)[C@H]3[C@@](O)(C(=O)OC)[C@H](OC(C)=O)[C@]5(CC)C=CCN6CC[C@]43[C@@H]65)C2)C1 | 9.05 | 9.10 | 7.70
CC[C@]1(NC(=O)c2ccc(N(C)C(=O)OC(C)(C)C)cc2)C[C@H]2CN(CCc3c([nH]c4ccccc34)[C@@](C(=O)OC)(c3cc4c(cc3OC)N(C)[C@H]3[C@@](O)(C(=O)OC)[C@H](OC(C)=O)[C@]5(CC)C=CCN6CC[C@]43[C@@H]65)C2)C1 | 8.41 | 8.39 | 7.46
CC[C@]1(NC(=O)c2cscn2)C[C@H]2CN(CCc3c([nH]c4ccccc34)[C@@](C(=O)OC)(c3cc4c(cc3OC)N(C)[C@H]3[C@@](O)(C(=O)OC)[C@H](OC(C)=O)[C@]5(CC)C=CCN6CC[C@]43[C@@H]65)C2)C1 | 8.20 | 8.25 | 7.10
CC[C@]1(NC(=O)c2ccc(NC)cc2)C[C@H]2CN(CCc3c([nH]c4ccccc34)[C@@](C(=O)OC)(c3cc4c(cc3OC)N(C)[C@H]3[C@@](O)(C(=O)OC)[C@H](OC(C)=O)[C@]5(CC)C=CCN6CC[C@]43[C@@H]65)C2)C1 | 9.48 | 9.42 | 8.21
CC[C@]1(NS(=O)(=O)c2cccc([N+](=O)[O-])c2)C[C@H]2CN(CCc3c([nH]c4ccccc34)[C@@](C(=O)OC)(c3cc4c(cc3OC)N(C)[C@H]3[C@@](O)(C(=O)OC)[C@H](OC(C)=O)[C@]5(CC)C=CCN6CC[C@]43[C@@H]65)C2)C1 | 6.31 | 6.35 | 6.37
CC[C@]1(NC(=O)C(c2ccccc2)c2ccccc2)C[C@H]2CN(CCc3c([nH]c4ccccc34)[C@@](C(=O)OC)(c3cc4c(cc3OC)N(C)[C@H]3[C@@](O)(C(=O)OC)[C@H](OC(C)=O)[C@]5(CC)C=CCN6CC[C@]43[C@@H]65)C2)C1 | 5.42 | 6.12 | 5.29
CC[C@]1(NC(=O)c2coc3ccccc23)C[C@H]2CN(CCc3c([nH]c4ccccc34)[C@@](C(=O)OC)(c3cc4c(cc3OC)N(C)[C@H]3[C@@](O)(C(=O)OC)[C@H](OC(C)=O)[C@]5(CC)C=CCN6CC[C@]43[C@@H]65)C2)C1 | 8.34 | 8.40 | 7.46
CC[C@]1(NC(=O)c2ccccc2OC(F)(F)F)C[C@H]2CN(CCc3c([nH]c4ccccc34)[C@@](C(=O)OC)(c3cc4c(cc3OC)N(C)[C@H]3[C@@](O)(C(=O)OC)[C@H](OC(C)=O)[C@]5(CC)C=CCN6CC[C@]43[C@@H]65)C2)C1 | 6.32 | 6.35 | 6.21
CC[C@]1(NC(=O)c2cocn2)C[C@H]2CN(CCc3c([nH]c4ccccc34)[C@@](C(=O)OC)(c3cc4c(cc3OC)N(C)[C@H]3[C@@](O)(C(=O)OC)[C@H](OC(C)=O)[C@]5(CC)C=CCN6CC[C@]43[C@@H]65)C2)C1 | 8.40 | 8.35 | 7.05
CC[C@]1(NS(=O)(=O)c2cccc3c(N(C)C)cccc23)C[C@H]2CN(CCc3c([nH]c4ccccc34)[C@@](C(=O)OC)(c3cc4c(cc3OC)N(C)[C@H]3[C@@](O)(C(=O)OC)[C@H](OC(C)=O)[C@]5(CC)C=CCN6CC[C@]43[C@@H]65)C2)C1 | 7.52 | 7.52 | 7.22

Further lines, with some results ahead:

pIC50 (HCT-116) | pIC50 (L1210) | Compound | pIC50 [1]
8.21 | 8.41 | CCOc1ccc(C(=O)N[C@@]2(CC)C[C@H]3CN(CCc4c([nH]c5ccccc45)[C@@](C(=O)OC)(c4cc5c(cc4OC)N(C)[C@H]4[C@@](O)(C(=O)OC)[C@H](OC(C)=O)[C@]6(CC)C=CCN7CC[C@]54[C@@H]76)C3)C2)cc1Br | 7.30
8.85 | 8.74 | CC[C@]1(NC(=O)c2ccc(F)cc2)C[C@H]2CN(CCc3c([nH]c4ccccc34)[C@@](C(=O)OC)(c3cc4c(cc3OC)N(C)[C@H]3[C@@](O)(C(=O)OC)[C@H](OC(C)=O)[C@]5(CC)C=CCN6CC[C@]43[C@@H]65)C2)C1 | 7.60
8.37 | 8.27 | CC[C@]1(NC(=O)c2ccc(C)c(NC(C)=O)c2)C[C@H]2CN(CCc3c([nH]c4ccccc34)[C@@](C(=O)OC)(c3cc4c(cc3OC)N(C)[C@H]3[C@@](O)(C(=O)OC)[C@H](OC(C)=O)[C@]5(CC)C=CCN6CC[C@]43[C@@H]65)C2)C1 | 6.48
9.22 | 9.22 | CC[C@]1(NC(=O)c2ccc(N)c(C)c2)C[C@H]2CN(CCc3c([nH]c4ccccc34)[C@@](C(=O)OC)(c3cc4c(cc3OC)N(C)[C@H]3[C@@](O)(C(=O)OC)[C@H](OC(C)=O)[C@]5(CC)C=CCN6CC[C@]43[C@@H]65)C2)C1 | 8.11
9.15 | 9.30 | CC[C@]1(NC(=O)c2ccsc2)C[C@H]2CN(CCc3c([nH]c4ccccc34)[C@@](C(=O)OC)(c3cc4c(cc3OC)N(C)[C@H]3[C@@](O)(C(=O)OC)[C@H](OC(C)=O)[C@]5(CC)C=CCN6CC[C@]43[C@@H]65)C2)C1 | 8.11
8.32 | 8.21 | CC[C@]1(NC(=O)c2ccc3c(c2)CCCCC3)C[C@H]2CN(CCc3c([nH]c4ccccc34)[C@@](C(=O)OC)(c3cc4c(cc3OC)N(C)[C@H]3[C@@](O)(C(=O)OC)[C@H](OC(C)=O)[C@]5(CC)C=CCN6CC[C@]43[C@@H]65)C2)C1 | 7.46
8.21 | 8.32 | CC[C@]1(NC(=O)c2ccc(C#N)c(C)c2)C[C@H]2CN(CCc3c([nH]c4ccccc34)[C@@](C(=O)OC)(c3cc4c(cc3OC)N(C)[C@H]3[C@@](O)(C(=O)OC)[C@H](OC(C)=O)[C@]5(CC)C=CCN6CC[C@]43[C@@H]65)C2)C1 | 7.19
8.21 | 8.21 | CC[C@]1(NC(=O)c2ccc([N+](=O)[O-])cc2)C[C@H]2CN(CCc3c([nH]c4ccccc34)[C@@](C(=O)OC)(c3cc4c(cc3OC)N(C)[C@H]3[C@@](O)(C(=O)OC)[C@H](OC(C)=O)[C@]5(CC)C=CCN6CC[C@]43[C@@H]65)C2)C1 | 7.22
7.40 | 7.22 | CC[C@]1(NC(=O)c2ccc(Br)c(Br)c2)C[C@H]2CN(CCc3c([nH]c4ccccc34)[C@@](C(=O)OC)(c3cc4c(cc3OC)N(C)[C@H]3[C@@](O)(C(=O)OC)[C@H](OC(C)=O)[C@]5(CC)C=CCN6CC[C@]43[C@@H]65)C2)C1 | 7.10
8.21 | 8.38 | CCOc1ccc(C(=O)N[C@@]2(CC)C[C@H]3CN(CCc4c([nH]c5ccccc45)[C@@](C(=O)OC)(c4cc5c(cc4OC)N(C)[C@H]4[C@@](O)(C(=O)OC)[C@H](OC(C)=O)[C@]6(CC)C=CCN7CC[C@]54[C@@H]76)C3)C2)cc1Cl | 7.40
8.17 | 8.29 | CC[C@]1(NC(=O)c2ccc3c(c2)CCN3)C[C@H]2CN(CCc3c([nH]c4ccccc34)[C@@](C(=O)OC)(c3cc4c(cc3OC)N(C)[C@H]3[C@@](O)(C(=O)OC)[C@H](OC(C)=O)[C@]5(CC)C=CCN6CC[C@]43[C@@H]65)C2)C1 | 7.22
